In patent publication US8669291B2, “Phenyl substituted cycloalkylamines as monoamine reuptake inhibitors” (Sunovion Pharmaceuticals Inc., priority 2007, dated 2014):
Like-named read-outs stand apart in the source and are kept apart here.

Tests used:
[1] = target: T1, human serotonin (5-HT) reuptake transporter (Homo sapiens, UniProt P31645); experiment: functional uptake assay, human 5-HT reuptake transporter; format: cell-based
T1 construct: expressed in transfected cells
Experimental: (§1) Compounds were tested for their inhibition of functional uptake of serotonin (5-HT), norepinephrine (NE), and dopamine (DA), in synaptosomes prepared from rat whole brain, hypothalamus, or corpus striatum, respectively, and/or using recombinant human transporters.

[2] = target: T2, human dopamine (DA) reuptake transporter (Homo sapiens, UniProt Q01959); experiment: functional uptake assay, human DA reuptake transporter; format: cell-based
T2 construct: expressed in transfected cells
T2 sequence (Q01959 whole entry): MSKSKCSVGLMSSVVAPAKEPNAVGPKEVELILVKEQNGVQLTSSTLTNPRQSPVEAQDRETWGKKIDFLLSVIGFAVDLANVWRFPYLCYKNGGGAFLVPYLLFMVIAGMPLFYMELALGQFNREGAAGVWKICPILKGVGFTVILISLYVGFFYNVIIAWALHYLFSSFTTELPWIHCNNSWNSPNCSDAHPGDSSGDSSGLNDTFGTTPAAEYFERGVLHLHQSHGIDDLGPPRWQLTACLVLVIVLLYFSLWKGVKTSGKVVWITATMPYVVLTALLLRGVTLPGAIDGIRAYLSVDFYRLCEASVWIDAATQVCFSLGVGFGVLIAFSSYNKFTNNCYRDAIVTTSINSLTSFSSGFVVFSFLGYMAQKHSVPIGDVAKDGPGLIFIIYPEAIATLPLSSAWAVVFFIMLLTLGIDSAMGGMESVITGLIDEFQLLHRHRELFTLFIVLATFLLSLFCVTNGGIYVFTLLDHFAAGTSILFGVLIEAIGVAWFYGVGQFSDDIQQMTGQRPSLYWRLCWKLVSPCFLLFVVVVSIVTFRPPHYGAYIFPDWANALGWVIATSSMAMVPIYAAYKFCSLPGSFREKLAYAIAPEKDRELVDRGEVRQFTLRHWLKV
Experimental: as §1

[3] = human metabolic stability (HLM t1/2); format: in vitro ADME; conditions: human liver microsomes
From the text: (§2) 4b. In Vitro PK Data (Human Metabolic Stability, Inhibition of CYP450 Enzymes, Inhibition of HERG Current)

[4] = target: T3, human norepinephrine (NE) reuptake transporter (Homo sapiens, UniProt P23975); experiment: functional uptake assay, human NE reuptake transporter; format: cell-based
T3 construct: expressed in transfected cells
T3 sequence (P23975 whole entry): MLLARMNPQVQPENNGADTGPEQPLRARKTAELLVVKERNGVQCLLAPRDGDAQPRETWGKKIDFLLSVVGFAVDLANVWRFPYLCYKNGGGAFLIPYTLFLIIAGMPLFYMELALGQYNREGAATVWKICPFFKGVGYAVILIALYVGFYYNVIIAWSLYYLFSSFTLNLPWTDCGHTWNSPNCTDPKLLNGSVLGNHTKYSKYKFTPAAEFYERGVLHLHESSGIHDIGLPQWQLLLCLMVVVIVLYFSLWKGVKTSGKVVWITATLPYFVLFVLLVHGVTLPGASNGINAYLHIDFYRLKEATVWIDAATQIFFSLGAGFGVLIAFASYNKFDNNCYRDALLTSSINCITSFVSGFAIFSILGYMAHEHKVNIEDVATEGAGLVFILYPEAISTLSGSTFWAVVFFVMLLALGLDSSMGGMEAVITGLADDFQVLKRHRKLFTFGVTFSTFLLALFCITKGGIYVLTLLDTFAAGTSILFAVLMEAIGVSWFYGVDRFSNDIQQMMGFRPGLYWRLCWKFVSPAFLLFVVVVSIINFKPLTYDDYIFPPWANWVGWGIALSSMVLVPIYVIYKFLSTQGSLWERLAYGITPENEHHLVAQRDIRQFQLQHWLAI
Experimental: as §1

HERG current = HERG current (Homo sapiens, UniProt Q12809); experiment: inhibition of HERG current; format: cell-based
HERG current, sequence (Q12809 whole entry): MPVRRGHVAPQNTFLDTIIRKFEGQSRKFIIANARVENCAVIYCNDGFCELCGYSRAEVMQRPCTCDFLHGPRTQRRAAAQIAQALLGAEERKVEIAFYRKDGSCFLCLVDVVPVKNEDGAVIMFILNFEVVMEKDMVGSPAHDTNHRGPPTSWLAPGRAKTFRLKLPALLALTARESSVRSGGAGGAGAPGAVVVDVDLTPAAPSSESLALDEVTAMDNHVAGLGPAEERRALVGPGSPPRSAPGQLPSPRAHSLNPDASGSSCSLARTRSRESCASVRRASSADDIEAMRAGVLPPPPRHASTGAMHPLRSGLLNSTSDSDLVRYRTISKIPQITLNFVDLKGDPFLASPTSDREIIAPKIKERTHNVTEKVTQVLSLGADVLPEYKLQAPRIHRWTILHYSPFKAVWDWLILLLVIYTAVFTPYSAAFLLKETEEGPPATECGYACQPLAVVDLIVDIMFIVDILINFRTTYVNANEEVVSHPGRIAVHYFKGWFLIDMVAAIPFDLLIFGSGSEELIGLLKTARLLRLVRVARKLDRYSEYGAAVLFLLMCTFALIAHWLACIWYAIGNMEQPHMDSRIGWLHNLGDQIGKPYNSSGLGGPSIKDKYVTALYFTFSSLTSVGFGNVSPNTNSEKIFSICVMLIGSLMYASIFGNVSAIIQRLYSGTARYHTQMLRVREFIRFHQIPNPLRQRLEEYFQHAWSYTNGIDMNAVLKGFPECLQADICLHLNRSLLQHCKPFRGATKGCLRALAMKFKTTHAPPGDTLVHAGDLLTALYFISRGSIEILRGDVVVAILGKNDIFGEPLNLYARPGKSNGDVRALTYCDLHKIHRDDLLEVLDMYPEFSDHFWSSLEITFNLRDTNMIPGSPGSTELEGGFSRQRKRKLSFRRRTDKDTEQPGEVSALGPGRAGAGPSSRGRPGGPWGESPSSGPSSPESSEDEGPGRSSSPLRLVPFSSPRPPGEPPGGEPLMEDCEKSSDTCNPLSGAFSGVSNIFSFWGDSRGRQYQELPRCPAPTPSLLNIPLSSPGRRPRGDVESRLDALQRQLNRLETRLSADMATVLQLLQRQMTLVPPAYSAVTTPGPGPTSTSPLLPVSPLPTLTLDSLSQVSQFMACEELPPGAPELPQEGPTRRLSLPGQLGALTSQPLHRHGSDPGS
From the text: as §2

[5] = system: CYP2D6, CYP2C9, CYP3A4, CYP2C19, CYP1A (printed 1a); experiment: inhibition of CYP450 enzymes; format: in vitro ADME; conditions: 5 isoforms; read-out: CYP inhibition IC50 (microM) 5 isoforms (2D6, 2C9, 3A4, 2C19, 1a)
From the text: as §2

mice [6] = experiment: Mouse Tail Suspension Test; format: in vivo; conditions: PO
Experimental: The method, which detects antidepressant activity, follows that described by Stéru et al (Psychopharmacology, 85: 367-370 (1985)). Rodents, suspended by the tail, rapidly become immobile. Antidepressants decrease the duration of immobility.
The behavior of the animal was recorded automatically for 5 minutes using a computerized device (Med-Associates Inc.) similar to that developed by Stéru et al (Prog. Neuropsychopharmacol. Exp. Psychiatry 11: 659-671 (1987)). Ten to twelve mice were tested in each group. Compounds were typically evaluated at 3 doses (1-30 mg/kg), administered orally one time: 30-60 minutes before the test, and compared with a vehicle control group. Desipramine (100 mg/kg), administered under the same experimental conditions, was used as the positive reference substance.
(§3) Data were analyzed by one way analysis of variance (ANOVA) followed by post-hoc comparisons where appropriate. An effect was considered significant if p<0.05. Data are represented as the mean and standard error to the mean (s.e.m).

mice [7] = experiment: Mouse Locomotor Activity; format: in vivo; conditions: PO
Experimental: In order to ensure effects of the compounds on immobility time were not related to a general stimulant effect on baseline motor activity, locomotor activity was assessed using photocell monitored cages (Med-Associates Inc.). Each test chamber was equipped with infrared photocell beams to measure movement of the animals. Horizontal and vertical activity were measured.
Rats or mice were pretreated with vehicle or test compounds and placed back in home cage, following which they were individually placed in locomotor cages and activity was monitored in 1-5 minute intervals for intervals up to 60 min.
as §3

reserpinized rat = experiment: reserpine-treated rat Parkinson's disease model; format: in vivo
Experimental: The effects of compound 4 alone and in combination with L-DOPA were evaluated in the reserpine-treated rat Parkinson's disease model. The method, which detects antiparkinson activity (reversal of motor deficits and akinesia), follows that described by Johnston et al. (Exp Neurol, 191, 243-250, 2005). Eighteen hours prior to behavioural testing, rats were lightly anaesthetized with isoflurane and reserpine (3 mg/kg, sc) was injected along with saline (50 ml/kg) to prevent dehydration.
Accelerating Rotarod: Performance on an accelerating rotarod was assessed using a 4-station rat rotarod (MedAssociates, USA). The speed of rotation of the rotarod was increased from 3.5 to 35 rpm over 5 minutes and the time for which the animal remained on the rod determined as the mean of three trials.
Catalepsy Test: Catalepsy was assessed by placing the rat's forepaws on top of a horizontal wooden rod suspended 6 cm above the bench surface. Time taken to remove both paws from the rod was recorded, up to a maximum of 120 seconds. Three trials per animal were conducted.
Open Field: Activity in an open field arena was assessed using automated activity monitors (Linton Instrumentation, UK). Rats were placed in the activity boxes and locomotor activity was recorded over a 240 minute period.
Drug Administration: For the monotherapy experiment, the effects of 5 different treatments were assessed: 1) vehicle (sterile water, PO), 2) 3 mg/kg compound 4 (PO), 3) 10 mg/kg compound 4 (PO), 4) 30 mg/kg compound 4 and 5) 80 mg/kg (IP) of the positive reference substance, L-DOPA (80 mg/kg). In the combination experiment, 5 different treatments were assessed: 1) compound 4 vehicle (PO)+L-DOPA vehicle (IP), 2) compound 4 (10 mg/kg, PO)+L-DOPA vehicle (IP), 3) compound 4 vehicle (PO)+L-DOPA (30 mg/kg, IP), 4) compound 4 (10 mg/kg, PO)+L-DOPA (30 mg/kg, IP) and 5) compound 4 vehicle (PO)+L-DOPA (80 mg/kg, IP). Treatments were given in a randomized fashion and each animal received all treatment conditions. Compound 4 was administered 60 minutes prior to behavioral assessment and L-DOPA was administered immediately prior to behavioral testing.

[8] = Example 6 summary of selected in vitro data, read-out: 5-HT IC50

T1 sequence (P31645 whole entry): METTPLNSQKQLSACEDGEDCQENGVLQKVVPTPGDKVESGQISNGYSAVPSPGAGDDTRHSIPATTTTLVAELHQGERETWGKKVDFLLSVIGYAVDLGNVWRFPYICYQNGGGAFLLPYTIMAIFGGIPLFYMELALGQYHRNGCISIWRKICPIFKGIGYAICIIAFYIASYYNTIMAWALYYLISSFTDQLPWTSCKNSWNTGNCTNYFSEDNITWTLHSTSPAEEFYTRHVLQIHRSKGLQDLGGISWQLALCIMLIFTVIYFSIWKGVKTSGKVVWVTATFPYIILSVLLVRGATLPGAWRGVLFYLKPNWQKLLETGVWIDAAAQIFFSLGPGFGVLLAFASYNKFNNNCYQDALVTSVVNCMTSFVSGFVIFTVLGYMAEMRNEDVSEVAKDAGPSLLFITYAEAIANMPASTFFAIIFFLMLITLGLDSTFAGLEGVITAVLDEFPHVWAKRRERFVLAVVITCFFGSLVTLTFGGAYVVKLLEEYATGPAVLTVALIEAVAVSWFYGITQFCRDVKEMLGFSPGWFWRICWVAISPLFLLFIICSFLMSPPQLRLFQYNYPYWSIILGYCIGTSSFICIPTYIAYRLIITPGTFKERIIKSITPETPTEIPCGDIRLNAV

Compound	IC50 [1, 8] [nM]	IC50 [2] [nM]	half-life [3] [h]	IC50 [4] [nM]	IC50 [5] [µM]	Mouse Tail Suspension Mean Immobility Time ± S.E.M. (mice [6]; 1 mg/kg)	Mouse Tail Suspension Mean Immobility Time ± S.E.M. (mice [6]; 10 mg/kg)	Mouse Tail Suspension Mean Immobility Time ± S.E.M. (mice [6]; 30 mg/kg)	Mouse Locomotor Activity Total Distance Traveled ± S.E.M. (mice [7]; 1 mg/kg)	Mouse Locomotor Activity Total Distance Traveled ± S.E.M. (mice [7]; 10 mg/kg)	Mouse Locomotor Activity Total Distance Traveled ± S.E.M. (mice [7]; 30 mg/kg)	further results
CNC[C@@H]1CCCC[C@@]1(O)c1ccc(Cl)c(Cl)c1 [Compound 4]	> 10000	10 to 200	2.93 to 5.42	10 to 200	> 10	++++ (>191 (++++))	+++ (171-190 (+++))	+ (100-160 (+))	** (501-700 (**))	*** (701-900 (***))	* (100-500 (*))	IC50 ([1]; Example 4a, human reuptake transporter, read-out: 5-HT IC50): > 10000 nM; IC50 ([2]; read-out: DA IC50 nM, Example 6 summary of selected in vitro data): 10 to 200 nM; IC50 ([4]; read-out: NE IC50 nM, Example 6 summary of selected in vitro data): 10 to 200 nM; IC50 (HERG current): 1000 to 15000 nM; Mouse Tail Suspension Mean Immobility Time ± S.E.M. (mice [6]; 3 mg/kg): ++++ (>191 (++++)); Mouse Locomotor Activity Total Distance Traveled ± S.E.M. (mice [7]; 3 mg/kg): ** (501-700 (**)); effects of combination with low dose L-DOPA compared with higher L-DOPA dose (80 mg/kg), rotarod (reserpinized rat; 10 mg/kg, PO + L-DOPA 30 mg/kg, FIG. 5): equal in magnitude and of longer duration; baseline locomotor activity (open field) performance (reserpinized rat; alone, 3-30 mg/kg, PO, FIG. 2): dose-dependently improved performance; rotarod performance (reserpinized rat; alone, 3-30 mg/kg, PO, FIG. 3): dose-dependently improved performance; catalepsy performance (reserpinized rat; alone, 3-30 mg/kg, PO, FIG. 4): dose-dependently improved performance
CN(C)C[C@@H]1CCCC[C@@]1(O)c1ccc(Cl)c(Cl)c1 (single isomer, unassigned) [Compound 2, cis-1-(3,4-dichlorophenyl)-2-((dimethylamino)methyl)cyclohexanol]	1 to 2000	10 to 200	0.417 to 2.92	10 to 200	> 20	+++ (171-190 (+++))	+ (100-160 (+))	+ (100-160 (+))	** (501-700 (**))	**** (>901 (****))	* (100-500 (*))	IC50 ([1]; 5-HT IC50 (nM), Example 4a, human reuptake transporter): 7000 to 10000 nM; IC50 ([2]; Example 6 summary of selected in vitro data, read-out: DA IC50): 10 to 200 nM; IC50 ([4]; Example 6 summary of selected in vitro data, read-out: NE IC50): 10 to 200 nM; IC50 (HERG current; read-out: HERG IC50): 16000 to 30000 nM; Mouse Tail Suspension Mean Immobility Time ± S.E.M. (mice [6]; 0.3 mg/kg): +++ (171-190 (+++)); Mouse Locomotor Activity Total Distance Traveled ± S.E.M. (mice [7]; 0.3 mg/kg): ** (501-700 (**))
